Measured values published in ChEMBL document CHEMBL5390318, “2-Amino-5-arylethynyl-thiophen-3-yl-(phenyl)methanones as A1 Adenosine Receptor Positive Allosteric Modulators” (ACS Med Chem Lett, 2023).

Tests used:
[1] = target: Translocator protein (Homo sapiens, UniProt P30536); test: Binding affinity to TSPO (unknown origin)
[2] = target: Sigma intracellular receptor 2 (Homo sapiens, UniProt Q5BJF2); test: Binding affinity to sigma 2 receptor (unknown origin)
[3] = target: Beta-3 adrenergic receptor (Homo sapiens, UniProt P13945); test: Binding affinity to beta3 adrenergic receptor (unknown origin)
Beta-3 adrenergic receptor, sequence (P13945 whole entry): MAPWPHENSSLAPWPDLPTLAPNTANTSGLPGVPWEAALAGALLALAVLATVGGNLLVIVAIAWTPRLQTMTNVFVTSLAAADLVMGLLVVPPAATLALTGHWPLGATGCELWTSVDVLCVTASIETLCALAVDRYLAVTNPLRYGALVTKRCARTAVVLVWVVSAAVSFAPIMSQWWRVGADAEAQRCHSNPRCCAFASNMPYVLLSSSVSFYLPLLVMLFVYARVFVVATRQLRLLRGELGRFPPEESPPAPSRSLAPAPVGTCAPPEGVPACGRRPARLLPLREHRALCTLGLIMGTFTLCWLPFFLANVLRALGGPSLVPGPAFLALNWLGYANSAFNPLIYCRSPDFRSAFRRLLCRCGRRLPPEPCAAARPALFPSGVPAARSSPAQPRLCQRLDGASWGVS

[4] = target: 5-hydroxytryptamine receptor 7 (Homo sapiens, UniProt P34969); test: Binding affinity to 5HT-7A receptor (unknown origin)
5-hydroxytryptamine receptor 7, sequence (P34969 whole entry): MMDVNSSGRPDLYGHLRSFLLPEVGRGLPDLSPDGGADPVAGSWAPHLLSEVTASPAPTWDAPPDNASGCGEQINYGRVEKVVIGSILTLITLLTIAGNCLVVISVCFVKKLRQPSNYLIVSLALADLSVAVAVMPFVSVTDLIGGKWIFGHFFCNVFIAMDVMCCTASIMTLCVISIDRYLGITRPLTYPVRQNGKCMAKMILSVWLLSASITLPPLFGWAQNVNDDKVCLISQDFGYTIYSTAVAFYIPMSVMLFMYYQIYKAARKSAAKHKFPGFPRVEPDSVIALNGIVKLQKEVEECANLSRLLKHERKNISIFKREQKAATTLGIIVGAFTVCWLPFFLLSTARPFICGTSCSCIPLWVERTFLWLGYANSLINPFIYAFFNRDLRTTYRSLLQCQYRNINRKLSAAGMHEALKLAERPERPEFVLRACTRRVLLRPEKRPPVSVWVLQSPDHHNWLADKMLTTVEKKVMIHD

Sigma intracellular receptor 2, sequence (Q5BJF2 whole entry): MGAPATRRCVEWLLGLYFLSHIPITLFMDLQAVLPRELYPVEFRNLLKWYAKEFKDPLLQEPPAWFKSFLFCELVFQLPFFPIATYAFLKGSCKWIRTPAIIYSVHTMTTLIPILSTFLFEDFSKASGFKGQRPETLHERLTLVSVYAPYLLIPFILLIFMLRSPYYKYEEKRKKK
Translocator protein, sequence (P30536 whole entry): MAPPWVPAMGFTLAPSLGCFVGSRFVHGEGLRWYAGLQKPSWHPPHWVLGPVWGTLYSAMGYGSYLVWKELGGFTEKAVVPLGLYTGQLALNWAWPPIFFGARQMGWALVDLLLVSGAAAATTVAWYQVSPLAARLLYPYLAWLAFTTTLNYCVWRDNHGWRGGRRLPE

Ki [1]: 560 nM
Ki [2]: 1400 nM
Ki [3]: 3500 nM
Ki [4]: 5700 nM
SMILES: CC(C)(C)Cc1c(C#Cc2ccccc2F)sc(N)c1C(=O)c1ccc(Cl)cc1
